Measurements from US20080220066A1 (HENDERSON MORLEY PLC, priority 2005, published 2008).

Key:
[1] = system: Herpes simplex virus (HSV); test: HSV virus yield (infectious virus particle production); type: cell-based; settings: for HSV yield: solvent as listed per compound, Torasemide at 90 μg/ml
[2] = system: Herpes simplex virus (HSV); test: HSV standard plaque inhibition assay; type: cell-based; settings: for ICVT activity: HSV plaque inhibition assay
Description: Using Herpes simplex virus (HSV), 50% plaque inhibitory dose (1D50) were established using the standard plaque inhibition assay.

SMILES	HSV yield [1]	ICVT activity [2]	other results
C[C@@H]1O[C@@H](O[C@H]2C[C@@H](O)[C@]3(CO)[C@H]4[C@H](O)C[C@]5(C)[C@@H](C6=CC(=O)OC6)CC[C@]5(O)[C@@H]4CC[C@]3(O)C2)[C@H](O)[C@H](O)[C@H]1O [Strophanthin G]	HSV yield reduced Borderline	–	–
CCCCNC(=O)NS(=O)(=O)c1ccc(C)cc1 [Tolbutamide]	–	only ‘borderline’ CVI activity	HSV yield reduced to zero ([1]; Solvent: PEG): HSV yield reduced to zero 300 μg/ml; HSV yield reduced to zero ([1]; Solvent: PG): HSV yield reduced to zero 300 μg/ml
Cc1cccc(Nc2ccncc2S(=O)(=O)NC(=O)NC(C)C)c1 [Torasemide]	HSV yield unaffected at 90 μg/ml	–	–
C[C@H]1O[C@@H](O[C@H]2[C@@H](O)C[C@H](O[C@H]3[C@@H](O)C[C@H](O[C@H]4CC[C@@]5(C)[C@H](CC[C@@H]6[C@@H]5CC[C@]5(C)[C@@H](C7=CC(=O)OC7)CC[C@]65O)C4)O[C@@H]3C)O[C@@H]2C)C[C@H](O)[C@@H]1O [Digitoxin]	HSV yield reduced	potent ICVT activity	ID50 ([2]; Digoxin, Digitoxin from powder 250 μg per ml in 70% ethanol, IV Lanoxin in 10% ethanol, virus not named at this place): 30 ng per ml; comparative ‘ICVT-ivities’ ([2]; saturated solutions in 90% ethanol compared with Lanoxin, virus not named at this place): more effective than Digoxin
CC(=O)Nc1nnc(S(N)(=O)=O)s1 [Acetazolamide]	–	only ‘borderline’ CVI activity	–
CCCCNc1cc(C(=O)O)cc(S(N)(=O)=O)c1Oc1ccccc1 [Bumetanide]	HSV yield reduced Borderline	–	–
NS(=O)(=O)c1cc2c(cc1Cl)NCNS2(=O)=O [Hydrochiorothiazide, Hydrochlorothiazide]	–	only ‘borderline’ CVI activity	HSV yield reduced to zero at ([1]; Solvent: NaOH 1% aqueous): HSV yield reduced to zero at 600 ug/ml
